Reference: US20240239729A1, “Functionalization of Lightly Branched Olefin Oligomers” (priority 2021, published 2024)

Experiments:
Type in all cases: physicochemical
[1] = Solubility in water at 25° C. by visual observation; details: 2-3 hours magnetic stirring
Procedure: Solubility measurements were conducted in water at 25° C. Solubility was determined through visual observation after 2-3 hours of magnetic stirring of surfactant solutions having variable concentrations.

[2] = Calcium tolerance (hard water tolerance), surfactant remaining in filtrate by HPLC-ELSD; details: 25° C.; 450 ppm surfactant, 420 ppm cations (3:1 Ca2+:Mg2+), stood overnight, 0.22 μm filtrate
Procedure: Calcium tolerance was measured at 25° C. using the following procedure. A surfactant solution containing 450 ppm of alcohol sulfate surfactant and 420 ppm cations (3:1 Ca^2+:Mg^2+) was prepared and allowed to stand overnight. Crystals formed during this time. The supernatant liquid was removed and passed through a 0.22 μm filter to provide a filtrate. The filtrate was then analyzed for surfactant residue. Analysis of the surfactant and salt residue was performed using an Agilent 1100 HPLC combined with SEDEX 75 evaporative light scattering detector (ELSD) using the run conditions specified in Table 4 below. Peak height was utilized to analyze surfactant concentration. Some samples were repeated in triplicate. Calcium tolerance results are specified in Table 5 below.

[3] = Critical micelle concentration in water (Kruss K100 tensiometer)
Procedure: Critical micelle concentrations in water were measured using an A Kruss Laboratory K100 tensiometer. CMC values were determined using the K100 instrument's fully automated measurement method, as described further in the K100 instrument's operating manual.

Solubility at 25° C., (Wt. %) [1] | CMC [3] | SMILES | Calcium tolerance (ppm surfactant remaining) [2]
<0.5% Wt. % | 0.001 g/g | CCCCCCCCCCCCCOS(=O)(=O)[O-].[Na+] [Entry 5, Sodium n-Tridecyl Sulfate] | 11.2 ppm
– | 0.00129 g/g | CCCC(C)CCCC(C)CCCOS(=O)(=O)O (stereo not shown) [Entry 8, 4,8-dimethylundecan-1-sulfate] | –
